Legend:
[1] = cited from earlier work; for reduction of the rate of decline in lung function: patients with IPF; for adverse events / side effects: treatment of IPF
[2] = test system: cytokines and chemokines of the interleukin, TNF, C-C and C-X-C motif families; details: for adjusted significance (p) value, C-C Motif Chemokine Ligand 2 (Ccl2) / adjusted significance (p) value, C-C Motif Chemokine Ligand 3 (Ccl3) / adjusted significance (p) value, C-C Motif Chemokine Ligand 4 (Ccl4) / adjusted significance (p) value, C-C Motif Chemokine Ligand 7 (Ccl7) / adjusted significance (p) value, C-C Motif Chemokine Ligand 8 (Ccl8) / adjusted significance (p) value, C-C Motif Chemokine Ligand 12 (Ccl12) / adjusted significance (p) value, C-C Motif Chemokine Ligand 24 (Ccl24) / adjusted significance (p) value, C-X-C Motif Chemokine Ligand 3 (Cxcl3) / adjusted significance (p) value, C-X-C Motif Chemokine Ligand 5 (Cxcl5) / adjusted significance (p) value, C-X-C Motif Chemokine Ligand 10 (Cxcl10) / adjusted significance (p) value, Interleukin 6 (IL6) / adjusted significance (p) value, Interleukin 11 (IL11) / adjusted significance (p) value, Interleukin 12B (IL12b) / adjusted significance (p) value, Interleukin 18 Receptor 1 (IL18r1) / adjusted significance (p) value, TNF Receptor Superfamily Member 10b (Tnfrsf10b) / adjusted significance (p) value, TNF Receptor Superfamily Member 11b (Tnfrsf11b) / adjusted significance (p) value, TNF Superfamily Member 9 (Tnfsf9) / adjusted significance (p) value, TNF Superfamily Member 18 (Tnfsf18) / adjusted significance (p) value, Interleukin 36 Gamma (IL1f9) / adjusted significance (p) value, TNF Superfamily Member 15 (Tnfsf15): lung expression vs bleomycin alone group; for adjusted significance (p) value, C-C Motif Chemokine Ligand 2 (Ccl2) / adjusted significance (p) value, C-C Motif Chemokine Ligand 3 (Ccl3) / adjusted significance (p) value, C-C Motif Chemokine Ligand 4 (Ccl4) / adjusted significance (p) value, C-C Motif Chemokine Ligand 7 (Ccl7) / adjusted significance (p) value, C-C Motif Chemokine Ligand 8 (Ccl8) / adjusted significance (p) value, C-C Motif Chemokine Ligand 12 (Ccl12) / adjusted significance (p) value, C-C Motif Chemokine Ligand 24 (Ccl24) / adjusted significance (p) value, C-X-C Motif Chemokine Ligand 3 (Cxcl3) / adjusted significance (p) value, C-X-C Motif Chemokine Ligand 5 (Cxcl5) / adjusted significance (p) value, C-X-C Motif Chemokine Ligand 10 (Cxcl10) / adjusted significance (p) value, Interleukin 6 (IL6) / adjusted significance (p) value, Interleukin 11 (IL11) / adjusted significance (p) value, Interleukin 12B (IL12b) / adjusted significance (p) value, Interleukin 18 Receptor 1 (IL18r1) / adjusted significance (p) value, TNF Receptor Superfamily Member 10b (Tnfrsf10b) / adjusted significance (p) value, TNF Receptor Superfamily Member 11b (Tnfrsf11b) / adjusted significance (p) value, TNF Superfamily Member 9 (Tnfsf9) / adjusted significance (p) value, TNF Superfamily Member 18 (Tnfsf18): Direction: downregulated; for adjusted significance (p) value, Interleukin 36 Gamma (IL1f9) / adjusted significance (p) value, TNF Superfamily Member 15 (Tnfsf15): Direction: upregulated; for regulation of expression of members of the interleukin/interleukin receptor, TNF/TNF receptor, C-C and C-X-C motif chemokine families: lung, vs bleomycin alone disease group, significant = adjusted p value <0.10
Description: Global gene expression changes were determined by Illumina Next Generation RNA sequencing in lung samples from the animal study described in Example 1. RNA was extracted from the post caval lobe that had been snap frozen at the termination of the study. For this analysis, 8 samples from each of treatment groups 1-6 (total 48 samples) were analysed. Briefly, total RNA was extracted for next generation sequencing using standard methods, then Illumina TruSeq RNA libraries including poly(A) enrichment were prepared. Sequencing was performed on an Illumina NextSeq 500, v2, high output, 1×75 bp reads with 30 Mio packages. Demultiplexing and trimming of Illumina adaptor residuals was performed on the raw data. Mapping of data reads was made using the reference mouse genome mm10. For bioinformatics analysis, the average expression level and standard deviations were determined for each gene for the 8 replicates per treatment group. Pairwise comparisons between groups were then performed to identify differentially expressed genes. Absolute p-values and adjusted p-values, to correct for multiplicity of testing, were calculated for each pairwise analysis.

[3] = test system: bleomycin-induced pulmonary fibrosis; assay: 21-day model of bleomycin-induced pulmonary fibrosis in mice; format: in vivo; details: day 21, oral gavage QD, 25 mg/kg pioglitazone, 100 mg/kg pamapimod, alone or in combination, p<0.05, t test; for lung weights normalized to body weights: vs. group 2 (bleomycin + vehicle); for fibrosis, group mean fibrotic index (modified Ashcroft score): vs. group 2 (fibrotic index 4.8)
Description: Male C57BL/6 mice, six to seven weeks of age, were used for this study. Animals were weighed one day prior to study initiation and 60 animals were randomized into 6 groups (N=10/group) such that mean body weights were similar for the different groups. Food and water were provided ad libitum, with a 12-hour light/dark cycle.
Treatment in groups 2-6 was initiated one day prior to bleomycin administration and continued though to the study end on day 21. On day -1, animals were dosed via oral gavage with vehicle control (0.5% methylcellulose; group 1 and group 2), pioglitazone at 25 mg/kg/dose (group 3), pamapimod at 100 mg/kg/dose (group 4), pioglitazone at 25 mg/kg/dose and pamapimod at 100 mg/kg/dose (group 5), pirfenidone at 100mg/kg/dose (group 6) and continued for 21 days. Pioglitazone and pamapimod were dosed once daily (QD) and pirfenidone was dosed twice daily (BID). On day 0, all mice in groups 2-6 received a single instillation of bleomycin to induce pulmonary fibrosis. Animals in group 1 (dosed with vehicle from days-1 to 21) were not instilled with bleomycin, but instead received a single dose of saline, and were considered sham negative control mice. Final drug treatments were administered 2-4 hours prior to study termination on day 21.
Body weights, absolute lung weights, and lung weights normalized to body weights were measured for all mice on day 21 after bleomycin instillation, and were compared to bleomycin-instilled vehicle treated control mice. The post-caval lobes from the right lung were collected and snap frozen. The remaining lungs were fixed in 10% NBF and underwent histopathology analysis and evaluated for eseverity of fibrosis using a modified Ashcroft score.
Vehicle (0.5% methylcellulose) and compounds were prepared weekly and stored at room temperature in the dark. All mice were dosed starting on day-1 until study termination on day 21 with a volume of 200 μl of vehicle or test compounds QD by oral gavage or 100 μl of pirfenidone BID by oral gavage. For groups receiving both pirfenidone and test compounds, pirfenidone was dosed 100 μl BID and test compounds were delivered in a total volume of 100 μl QD. […]
The lung samples were processed and embedded with all lobes from each mouse in one paraffin block. […] A modified Ashcroft score (Hubner et al., 2008) was recorded for each field. The fibrotic index was calculated as the sum of the modified Ashcroft field scores divided by the number of fields examined. […]
Endpoint data on day 21 is shown as the average Ashcroft score per experimental group, with standard error of the mean (SEM). Statistical differences (defined as p<0.05) between groups were analyzed using t-tests in Prism version 7.0 software (GraphPad, La Jolla, Calif.). […]

SMILES | reduction of the rate of decline in lung function [1] | adverse events / side effects [1] | adjusted significance (p) value, C-C Motif Chemokine Ligand 2 (Ccl2) [2] | adjusted significance (p) value, C-C Motif Chemokine Ligand 3 (Ccl3) [2] | adjusted significance (p) value, C-C Motif Chemokine Ligand 4 (Ccl4) [2] | adjusted significance (p) value, C-C Motif Chemokine Ligand 7 (Ccl7) [2] | adjusted significance (p) value, C-C Motif Chemokine Ligand 8 (Ccl8) [2] | adjusted significance (p) value, C-C Motif Chemokine Ligand 12 (Ccl12) [2] | adjusted significance (p) value, C-C Motif Chemokine Ligand 24 (Ccl24) [2] | adjusted significance (p) value, C-X-C Motif Chemokine Ligand 3 (Cxcl3) [2] | adjusted significance (p) value, C-X-C Motif Chemokine Ligand 5 (Cxcl5) [2] | adjusted significance (p) value, C-X-C Motif Chemokine Ligand 10 (Cxcl10) [2] | adjusted significance (p) value, Interleukin 6 (IL6) [2] | adjusted significance (p) value, Interleukin 11 (IL11) [2] | adjusted significance (p) value, Interleukin 12B (IL12b) [2] | adjusted significance (p) value, Interleukin 18 Receptor 1 (IL18r1) [2] | adjusted significance (p) value, TNF Receptor Superfamily Member 10b (Tnfrsf10b) [2] | adjusted significance (p) value, TNF Receptor Superfamily Member 11b (Tnfrsf11b) [2] | adjusted significance (p) value, TNF Superfamily Member 9 (Tnfsf9) [2] | adjusted significance (p) value, TNF Superfamily Member 18 (Tnfsf18) [2] | further results
Cc1ccc(=O)n(-c2ccccc2)c1 [pirfenidone, Pirfenidone] | approximately 50% | significant side effects | – | – | – | – | – | – | – | – | – | – | – | – | – | – | – | – | – | – | –
COC(=O)c1ccc2c(c1)NC(=O)/C2=C(\Nc1ccc(N(C)C(=O)CN2CCN(C)CC2)cc1)c1ccccc1 [nintedanib, Nintedanib] | approximately 50% | significant systemic adverse events | – | – | – | – | – | – | – | – | – | – | – | – | – | – | – | – | – | – | –
Cn1c(=O)c(Oc2ccc(F)cc2F)cc2cnc(NC(CCO)CCO)nc21 [Pamapimod, 6-(2,4-Difluorophenoxy)-2-[3-hydroxy-1-(2-hydroxyethyl)-propylamino]-8-methyl-8H-pyrido[2,3-d]pyrimidin-7-one] | – | – | NS (NS = adjusted p value > 0.10) | NS (NS = adjusted p value > 0.10) | 0.042 | NS (NS = adjusted p value > 0.10) | NS (NS = adjusted p value > 0.10) | NS (NS = adjusted p value > 0.10) | 0.032 | NS (NS = adjusted p value > 0.10) | NS (NS = adjusted p value > 0.10) | NS (NS = adjusted p value > 0.10) | NS (NS = adjusted p value > 0.10) | NS (NS = adjusted p value > 0.10) | 0.023 | NS (NS = adjusted p value > 0.10) | NS (NS = adjusted p value > 0.10) | NS (NS = adjusted p value > 0.10) | NS (NS = adjusted p value > 0.10) | NS (NS = adjusted p value > 0.10) | adjusted significance (p) value, Interleukin 36 Gamma (IL1f9) [2]: NS (NS = adjusted p value > 0.10); adjusted significance (p) value, TNF Superfamily Member 15 (Tnfsf15) [2]: 0.0079; regulation of expression of members of the interleukin/interleukin receptor, TNF/TNF receptor, C-C and C-X-C motif chemokine families [2]: Neither pioglitazone or pamapimod single treatments significantly regulated expression; lung weights normalized to body weights [3]: Substantially lower normalized lung weights; fibrosis, group mean fibrotic index (modified Ashcroft score) [3]: Substantially less fibrosis
CCc1ccc(CCOc2ccc(CC3SC(=O)NC3=O)cc2)nc1 (centres unmarked) [Pioglitazone] | – | – | NS (NS = adjusted p value > 0.10) | NS (NS = adjusted p value > 0.10) | NS (NS = adjusted p value > 0.10) | NS (NS = adjusted p value > 0.10) | NS (NS = adjusted p value > 0.10) | NS (NS = adjusted p value > 0.10) | NS (NS = adjusted p value > 0.10) | NS (NS = adjusted p value > 0.10) | NS (NS = adjusted p value > 0.10) | NS (NS = adjusted p value > 0.10) | NS (NS = adjusted p value > 0.10) | NS (NS = adjusted p value > 0.10) | NS (NS = adjusted p value > 0.10) | NS (NS = adjusted p value > 0.10) | NS (NS = adjusted p value > 0.10) | NS (NS = adjusted p value > 0.10) | NS (NS = adjusted p value > 0.10) | NS (NS = adjusted p value > 0.10) | adjusted significance (p) value, Interleukin 36 Gamma (IL1f9) [2]: NS (NS = adjusted p value > 0.10); adjusted significance (p) value, TNF Superfamily Member 15 (Tnfsf15) [2]: NS (NS = adjusted p value > 0.10); regulation of expression of members of the interleukin/interleukin receptor, TNF/TNF receptor, C-C and C-X-C motif chemokine families [2]: Neither pioglitazone or pamapimod single treatments significantly regulated expression; lung weights normalized to body weights [3]: Substantially lower normalized lung weights; fibrosis, group mean fibrotic index (modified Ashcroft score) [3]: Substantially less fibrosis

— patent US20210267983A1, “COMBINATIONS OF PPAR AGONISTS AND P38 KINASE INHIBITORS FOR PREVENTING OR TREATING FIBROTIC DISEASES” (KINARUS AG, priority 2018, published 2021)
